A word on the IC50: it is the concentration at which inhibition is half-maximal.

The values below come from US8604217B2, “Compound, a process for its preparation, a pharmaceutical composition, use of a compound, a method for modulating or regulating serine/threonine kinases and a serine/threonine kinases modulating agent” (Selvita S.A., priority 2009, dated 2013).

Assay [1] concerns p-4EBP1 (Ser65). Put plainly: In vitro inhibition of protein phosphorylation, Western blot in MV4-11 cells. The format is cell-based, human. The note with it: for IC50: Homo sapiens, MV4-11, MV411 cells, read-out: calculated cellular IC50 for biomarker inhibition, p-4EBP1 (Ser65). Here is the method: (§1) The inventors have investigated the efficacy of PIM-1 kinase inhibition by compound 20 on MV4-11 cells 4 h and 24 h after the treatment. The efficacy of PIM-1 inhibition was evaluated basing on the changes in the expression and phosphorylation levels of its downstream target proteins, using Western blot (FIG. 1). Sunitinib was used as a positive control. After densitometric quantification of the obtained results, cellular IC50 was assessed (Table 6). […] PIM-1 and tubulin protein levels were assessed as controls.

Assay [2] concerns c-MYC. The description is as above. Type of assay: cell-based, human. As to conditions: for IC50: Homo sapiens, MV4-11, MV411 cells, read-out: calculated cellular IC50 for biomarker inhibition, c-MYC. As to the method:
as §1

The target in assay [3] is PAK6(h) (Homo sapiens (Human), UniProt Q9NQU5). In words: KinaseProfiler kinase panel. Type of assay: biochemical.
For assay [4], the target named is PAR-1Bα(h) (Homo sapiens (Human), UniProt Q7KZI7). Put plainly: KinaseProfiler kinase panel. The format is biochemical.
The target of assay [5] is PKBβ(h) (Homo sapiens (Human), UniProt P31751). Put plainly: KinaseProfiler kinase panel. Type of assay: biochemical.
Assay [6] deals with CHK2(h) (Homo sapiens (Human), UniProt O96017). Put plainly: KinaseProfiler kinase panel. The format is biochemical.
Assay [7] has as its target Lck(h) activated (Homo sapiens (Human), UniProt P06239). In words: KinaseProfiler kinase panel. Type of assay: biochemical.
The target in assay [8] is PKD2(h) (Homo sapiens (Human), UniProt Q9BZL6). In words: KinaseProfiler kinase panel. The format is biochemical.
In assay [9] the target is MEK1(h) (Homo sapiens (Human), UniProt Q02750). In words: KinaseProfiler kinase panel. The format is biochemical.
The target of assay [10] is GCK(h) (Homo sapiens (Human), UniProt Q12851). In words: KinaseProfiler kinase panel. Type of assay: biochemical.
Assay [11] addresses Flt1(h) (Homo sapiens (Human), UniProt P17948). Put plainly: KinaseProfiler kinase panel. The format is biochemical.
Assay [12] has as its target WNK3(h) (Homo sapiens (Human), UniProt Q9BYP7). In words: KinaseProfiler kinase panel. The format is biochemical.
For assay [13], the target named is NEK7(h) (Homo sapiens (Human), UniProt Q8TDX7). Put plainly: KinaseProfiler kinase panel. Type of assay: biochemical.
Assay [14] has as its target BrSK1(h) (Homo sapiens (Human), UniProt Q8TDC3). In words: KinaseProfiler kinase panel. The format is biochemical.
In assay [15] the target is PAK2(h) (Homo sapiens (Human), UniProt Q13177). In words: KinaseProfiler kinase panel. Type of assay: biochemical.
The target in assay [16] is SRPK1(h) (Homo sapiens (Human), UniProt Q96SB4). Put plainly: KinaseProfiler kinase panel. Type of assay: biochemical.
Assay [17] has as its target JNK2α2(h) (Homo sapiens (Human), UniProt P45984). In words: KinaseProfiler kinase panel. Type of assay: biochemical.
Assay [18] deals with Abl (H396P) (h) (Homo sapiens (Human), UniProt P00519, H396P). In words: KinaseProfiler kinase panel. Type of assay: biochemical.
For assay [19], the target named is NLK(h) (Homo sapiens (Human), UniProt Q9UBE8). Put plainly: KinaseProfiler kinase panel. The format is biochemical.
For assay [20], the target named is BrSK2(h) (Homo sapiens (Human), UniProt Q8IWQ3). In words: KinaseProfiler kinase panel. The format is biochemical.
Assay [21] concerns the target Plk1(h) (Homo sapiens (Human), UniProt P53350). In words: KinaseProfiler kinase panel. The format is biochemical.
Assay [22] deals with Pyk2(h) (Homo sapiens (Human), UniProt Q14289). Put plainly: KinaseProfiler kinase panel. The format is biochemical.
Assay [23] concerns the target ROCK-I(h) (Homo sapiens (Human), UniProt Q13464). In words: KinaseProfiler kinase panel. Type of assay: biochemical.
Assay [24] concerns the target Rsk4(h) (Homo sapiens (Human), UniProt Q9UK32). Put plainly: KinaseProfiler kinase panel. The format is biochemical.
Assay [25] deals with Itk(h) (Homo sapiens (Human), UniProt Q08881). In words: KinaseProfiler kinase panel. The format is biochemical.
In assay [26] the target is Mer(h) (Homo sapiens (Human), UniProt Q12866). Put plainly: KinaseProfiler kinase panel. The format is biochemical.
Assay [27] has as its target Abl(h) (Homo sapiens (Human), UniProt P00519). Put plainly: KinaseProfiler kinase panel. Type of assay: biochemical.
Assay [28] concerns the target SAPK4(h) (Homo sapiens (Human), UniProt O15264). Put plainly: KinaseProfiler kinase panel. The format is biochemical.
Assay [29] concerns the target Syk(h) (Homo sapiens (Human), UniProt P43405). Put plainly: KinaseProfiler kinase panel. Type of assay: biochemical.
For assay [30], the target named is SRPK2(h) (Homo sapiens (Human), UniProt P78362). In words: KinaseProfiler kinase panel. The format is biochemical.
Assay [31] has as its target NEK11(h) (Homo sapiens (Human), UniProt Q8NG66). Put plainly: KinaseProfiler kinase panel. The format is biochemical.
For assay [32], the target named is IR(h) (Homo sapiens (Human), UniProt P06213). In words: KinaseProfiler kinase panel. Type of assay: biochemical.
Assay [33] concerns the target Rsk3(h) (Homo sapiens (Human), UniProt Q15349). Put plainly: KinaseProfiler kinase panel. Type of assay: biochemical.
Assay [34] addresses Flt4(h) (Homo sapiens (Human), UniProt P35916). Put plainly: KinaseProfiler kinase panel. Type of assay: biochemical.
In assay [35] the target is Ret(V804M)(h) (Homo sapiens (Human), UniProt P07949, V804M). In words: KinaseProfiler kinase panel. Type of assay: biochemical.
The target of assay [36] is Met(Y1248H)(h) (Homo sapiens (Human), UniProt P08581, Y1248H). Put plainly: KinaseProfiler kinase panel. The format is biochemical.

Where two headings read alike, the source gives them in different places.

PKBβ(h), sequence (P31751 whole entry): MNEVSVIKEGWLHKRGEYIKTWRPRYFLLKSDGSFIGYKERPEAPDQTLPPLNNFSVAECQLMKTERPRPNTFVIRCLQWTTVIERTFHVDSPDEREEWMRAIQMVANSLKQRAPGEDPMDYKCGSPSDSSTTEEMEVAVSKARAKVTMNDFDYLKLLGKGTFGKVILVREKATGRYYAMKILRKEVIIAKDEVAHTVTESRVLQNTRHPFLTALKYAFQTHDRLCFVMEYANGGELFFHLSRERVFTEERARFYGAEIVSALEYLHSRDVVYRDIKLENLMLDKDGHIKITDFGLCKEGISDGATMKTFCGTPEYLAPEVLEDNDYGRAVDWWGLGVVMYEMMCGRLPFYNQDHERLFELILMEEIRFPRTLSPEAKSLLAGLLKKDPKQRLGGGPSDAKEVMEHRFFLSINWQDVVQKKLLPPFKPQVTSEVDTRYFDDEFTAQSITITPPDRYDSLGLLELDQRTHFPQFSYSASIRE
ROCK-I(h), sequence (Q13464 whole entry): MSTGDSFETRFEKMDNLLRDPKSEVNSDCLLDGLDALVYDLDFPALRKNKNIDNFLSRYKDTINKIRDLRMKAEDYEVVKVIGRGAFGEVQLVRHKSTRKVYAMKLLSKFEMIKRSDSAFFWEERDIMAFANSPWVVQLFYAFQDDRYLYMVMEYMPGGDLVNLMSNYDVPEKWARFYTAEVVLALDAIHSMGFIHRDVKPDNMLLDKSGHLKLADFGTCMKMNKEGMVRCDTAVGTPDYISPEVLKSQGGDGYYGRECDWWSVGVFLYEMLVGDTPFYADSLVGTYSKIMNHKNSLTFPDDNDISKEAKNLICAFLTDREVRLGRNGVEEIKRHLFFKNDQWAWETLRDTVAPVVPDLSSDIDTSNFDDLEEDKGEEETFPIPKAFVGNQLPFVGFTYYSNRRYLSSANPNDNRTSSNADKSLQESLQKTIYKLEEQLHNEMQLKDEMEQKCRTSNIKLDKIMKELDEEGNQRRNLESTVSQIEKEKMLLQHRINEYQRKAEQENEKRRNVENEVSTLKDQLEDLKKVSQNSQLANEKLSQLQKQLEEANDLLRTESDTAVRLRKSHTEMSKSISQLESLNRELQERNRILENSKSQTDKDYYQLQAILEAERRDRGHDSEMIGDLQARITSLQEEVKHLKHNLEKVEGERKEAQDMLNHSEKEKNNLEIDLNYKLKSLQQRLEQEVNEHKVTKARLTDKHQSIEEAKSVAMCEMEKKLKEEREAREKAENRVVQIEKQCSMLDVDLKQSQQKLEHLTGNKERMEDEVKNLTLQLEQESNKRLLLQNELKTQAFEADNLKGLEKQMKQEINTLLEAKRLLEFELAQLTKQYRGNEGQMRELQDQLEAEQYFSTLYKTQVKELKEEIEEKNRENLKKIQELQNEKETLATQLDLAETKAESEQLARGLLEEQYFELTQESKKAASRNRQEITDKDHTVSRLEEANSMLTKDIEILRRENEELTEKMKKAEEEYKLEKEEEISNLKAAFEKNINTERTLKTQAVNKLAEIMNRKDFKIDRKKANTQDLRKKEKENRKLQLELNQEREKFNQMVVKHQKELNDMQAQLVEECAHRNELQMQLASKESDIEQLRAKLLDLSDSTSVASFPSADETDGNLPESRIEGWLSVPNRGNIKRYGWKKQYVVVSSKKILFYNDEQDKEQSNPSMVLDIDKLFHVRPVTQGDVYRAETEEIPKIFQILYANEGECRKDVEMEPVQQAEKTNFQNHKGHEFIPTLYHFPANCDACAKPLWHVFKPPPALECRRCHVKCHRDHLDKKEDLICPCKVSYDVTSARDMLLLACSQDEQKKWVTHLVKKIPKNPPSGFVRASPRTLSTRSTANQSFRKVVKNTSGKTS
Ret(V804M)(h), sequence (P07949 29-1114 V804M): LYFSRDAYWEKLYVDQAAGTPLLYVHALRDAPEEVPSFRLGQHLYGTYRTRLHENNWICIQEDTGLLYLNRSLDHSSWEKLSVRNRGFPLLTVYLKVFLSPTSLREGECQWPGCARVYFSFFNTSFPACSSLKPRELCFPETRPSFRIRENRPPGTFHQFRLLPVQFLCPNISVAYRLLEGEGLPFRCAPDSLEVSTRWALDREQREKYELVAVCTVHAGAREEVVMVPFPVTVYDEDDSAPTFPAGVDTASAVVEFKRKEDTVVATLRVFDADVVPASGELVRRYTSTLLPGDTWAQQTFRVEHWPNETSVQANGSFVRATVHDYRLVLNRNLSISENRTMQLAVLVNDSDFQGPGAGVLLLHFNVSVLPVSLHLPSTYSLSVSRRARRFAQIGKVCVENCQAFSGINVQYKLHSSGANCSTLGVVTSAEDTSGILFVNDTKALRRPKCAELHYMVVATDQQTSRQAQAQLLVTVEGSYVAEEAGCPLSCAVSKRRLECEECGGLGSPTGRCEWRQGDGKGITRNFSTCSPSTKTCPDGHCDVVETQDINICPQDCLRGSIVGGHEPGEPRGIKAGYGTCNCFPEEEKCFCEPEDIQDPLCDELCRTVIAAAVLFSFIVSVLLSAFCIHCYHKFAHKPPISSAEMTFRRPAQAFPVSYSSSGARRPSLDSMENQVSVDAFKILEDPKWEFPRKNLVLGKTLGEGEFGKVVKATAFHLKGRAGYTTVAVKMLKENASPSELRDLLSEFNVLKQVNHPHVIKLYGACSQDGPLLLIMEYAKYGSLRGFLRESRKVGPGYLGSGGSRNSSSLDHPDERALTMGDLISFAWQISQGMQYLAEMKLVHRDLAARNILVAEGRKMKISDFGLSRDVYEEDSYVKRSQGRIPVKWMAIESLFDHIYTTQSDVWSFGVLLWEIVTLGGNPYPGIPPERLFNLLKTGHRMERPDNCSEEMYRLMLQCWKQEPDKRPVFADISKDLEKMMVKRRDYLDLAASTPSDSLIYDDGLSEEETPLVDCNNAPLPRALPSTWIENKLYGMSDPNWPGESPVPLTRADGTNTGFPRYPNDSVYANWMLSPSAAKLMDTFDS
Mer(h), sequence (Q12866 21-999): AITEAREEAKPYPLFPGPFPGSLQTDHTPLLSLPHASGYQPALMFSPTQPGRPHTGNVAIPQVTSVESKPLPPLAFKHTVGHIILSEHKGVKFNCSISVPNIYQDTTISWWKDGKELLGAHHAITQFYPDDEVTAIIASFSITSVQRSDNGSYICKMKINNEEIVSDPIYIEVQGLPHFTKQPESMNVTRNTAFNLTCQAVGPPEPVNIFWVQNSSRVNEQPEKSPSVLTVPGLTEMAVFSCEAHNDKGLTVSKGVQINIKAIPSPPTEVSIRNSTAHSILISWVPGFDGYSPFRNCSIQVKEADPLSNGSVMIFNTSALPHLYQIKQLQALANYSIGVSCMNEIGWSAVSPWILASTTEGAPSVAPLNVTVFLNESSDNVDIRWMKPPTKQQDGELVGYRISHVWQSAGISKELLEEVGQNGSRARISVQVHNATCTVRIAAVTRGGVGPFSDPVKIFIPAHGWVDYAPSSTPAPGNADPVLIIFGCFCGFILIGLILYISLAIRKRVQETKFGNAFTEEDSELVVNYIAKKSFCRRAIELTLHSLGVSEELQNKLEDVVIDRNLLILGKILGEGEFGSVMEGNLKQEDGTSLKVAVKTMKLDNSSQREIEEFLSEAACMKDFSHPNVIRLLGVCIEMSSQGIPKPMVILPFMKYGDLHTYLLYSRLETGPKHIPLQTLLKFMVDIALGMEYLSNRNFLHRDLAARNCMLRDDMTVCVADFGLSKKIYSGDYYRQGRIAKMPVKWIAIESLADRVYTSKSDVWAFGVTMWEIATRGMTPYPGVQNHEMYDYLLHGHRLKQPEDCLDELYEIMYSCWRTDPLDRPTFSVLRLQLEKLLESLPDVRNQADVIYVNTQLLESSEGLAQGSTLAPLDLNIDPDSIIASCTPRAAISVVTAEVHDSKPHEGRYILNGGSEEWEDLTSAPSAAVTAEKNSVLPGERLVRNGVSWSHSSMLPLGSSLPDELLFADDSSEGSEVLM
NEK11(h), sequence (Q8NG66 whole entry): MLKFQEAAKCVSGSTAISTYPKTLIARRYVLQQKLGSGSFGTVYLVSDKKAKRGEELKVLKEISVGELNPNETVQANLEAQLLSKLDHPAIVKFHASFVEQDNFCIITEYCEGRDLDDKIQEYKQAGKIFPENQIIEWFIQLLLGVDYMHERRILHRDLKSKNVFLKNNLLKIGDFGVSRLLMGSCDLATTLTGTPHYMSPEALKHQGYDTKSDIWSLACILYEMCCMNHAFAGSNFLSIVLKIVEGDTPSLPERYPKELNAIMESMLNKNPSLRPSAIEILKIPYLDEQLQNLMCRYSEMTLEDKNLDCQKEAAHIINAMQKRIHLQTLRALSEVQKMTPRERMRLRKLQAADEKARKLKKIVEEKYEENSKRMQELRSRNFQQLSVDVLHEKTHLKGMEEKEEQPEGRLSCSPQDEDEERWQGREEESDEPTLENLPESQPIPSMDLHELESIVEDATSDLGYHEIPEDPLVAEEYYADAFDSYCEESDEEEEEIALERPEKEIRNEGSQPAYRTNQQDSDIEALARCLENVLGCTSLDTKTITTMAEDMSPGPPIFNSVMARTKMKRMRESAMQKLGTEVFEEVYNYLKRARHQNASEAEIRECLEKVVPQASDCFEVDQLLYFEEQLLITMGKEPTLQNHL
MEK1(h), sequence (Q02750 whole entry): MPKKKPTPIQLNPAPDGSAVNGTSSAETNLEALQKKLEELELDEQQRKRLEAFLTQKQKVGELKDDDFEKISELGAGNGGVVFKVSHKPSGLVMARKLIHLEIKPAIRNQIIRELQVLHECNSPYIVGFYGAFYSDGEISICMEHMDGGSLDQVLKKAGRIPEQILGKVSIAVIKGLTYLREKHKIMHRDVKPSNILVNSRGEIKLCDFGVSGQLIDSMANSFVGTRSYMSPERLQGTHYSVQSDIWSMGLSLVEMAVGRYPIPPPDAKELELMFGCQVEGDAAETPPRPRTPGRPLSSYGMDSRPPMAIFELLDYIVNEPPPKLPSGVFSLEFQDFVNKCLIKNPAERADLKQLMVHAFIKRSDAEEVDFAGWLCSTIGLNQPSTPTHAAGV

On to `Brc1c(Br)c(Br)c2[nH]c(N3CCNCC3)nc2c1Br` [Compound 20, 4,5,6,7-tetrabromo-2-(piperazin-1-yl)-1H-benzo[d]imidazole], for which the IC50 in assay [1] (4 h treatment) was 3130 nM; in assay [1] (24 h treatment), 1120 nM; in assay [2] (4 h treatment), 890 nM; in [2] (24 h treatment), 2030 nM. In addition, the “inhibition of p-4EBP1(Ser65) (Western blot)” value in [1] (MV4-11 cells, 4 h and 24 h) was “dose- and time-dependent inhibition”. Besides, the “inhibition of c-MYC (Western blot)” value in assay [2] (MV4-11 cells, after 4 h and 24 h) is “dose dependent inhibition”.
For the compound `CCn1c(N2CCNCC2)nc2c(Br)c(Br)c(Br)c(Br)c21` [Compound 416, 4,5,6,7-tetrabromo-1-ethyl-2-(piperazin-1-yl)-1H-benzo[d]imidazole], the remaining activity at 1 µM in assay [3] was 85%; in [4] it was 85%; in assay [5] it was 90%; in [6], 76%; in [7], 69%; in assay [8] it was 58%. The remaining activity at 1 µM in assay [9] stood at 73%; in [10], 75%; in assay [11] it was 40%; in assay [12], 94%; in assay [13] it was 115%; in assay [14] it was 103%. The remaining activity at 1 µM in assay [15] was 95%; in assay [16] it was 106%; in assay [17], 100%; in assay [18], 107%; in assay [19], 85%; in [20], 91%. Besides, the remaining activity at 1 µM in [21] was 117%; in assay [22] it was 97%; in [23], 90%; in assay [24], 89%; in assay [25] it was 105%; in [26] it was 14%. The remaining activity at 1 µM in assay [27] came to 107%; in assay [28], 51%; in [29] it was 95%; in assay [30] it was 102%; in [31], 73%; in [32], 104%. Moreover, the remaining activity at 1 µM in assay [33] is 71%; in assay [34] it was 17%; in assay [35], 20%; in assay [36], 70%.
